From article PMC10394516, “The pharmacokinetic profile of brensocatib and its effect on pharmacodynamic biomarkers including NE, PR3, and CatG in various rodent species” (Frontiers in Pharmacology, 2023)

Legend:
NSPs (NE, PR3, CatG) = test: PD recovery study, bone marrow NSP activities (all three NSPs), C57BL/6 mice; type: in vivo; conditions: after 8 days of 5 mg/kg BID
Method: A PD recovery study was performed in female C57BL/6 mice dosed BID for 8 consecutive days. Mice were dosed by oral gavage either with vehicle (0 mg/kg) or 5 mg/kg brensocatib (BID; 10 mg/kg/day). After 8 consecutive days of dosing, the animals were maintained without further treatment until prescribed sacrifice (days: 1, 3, 6, 8, and 10 days post final dose). Plasma was collected from animals during the first 24 h of dosing at −0.5 (half-hour prior to dosing), 1, 8, 9, and 24 h post initial dose. Note that the 8- and 24-h plasma samples were prior to the afternoon dose and prior to the second day dose, respectively. Plasma was used for PK analysis via LC-MS/MS. […]
Bone marrow lysates prepared as described above were diluted and plated onto 96-well assay plates to quantify NSP activities as described previously ([Basso et al., 2022]). […] The specific NSP activity in each sample was calculated as the total activity minus the activity in the presence of a specific NSP inhibitor (if used), including elastase inhibitor (Abcam) for NE, sivelestat (Abcam) for PR3, and cathepsin G inhibitor I (Cayman Chemical; Ann Arbor, MI) for CatG. […] A portion of each cell lysate sample was retained for protein quantification using a Pierce™ BCA Protein Assay Kit (Thermo Fisher). […]

[1] = parameters: method as in Chalmers et al., 2020; conditions: Phase 2 trial in NCFBE (WILLOW, NCT03218917), compared to placebo; ref Chalmers et al., 2020; cited from earlier work
NE = test: Bone marrow NE activity after repeated dosing, Sprague Dawley rats; type: in vivo; conditions: for Reduction of NE activity vs vehicle / Change From Vehicle Control (%) NE: 9 days
Method: Briefly, animals were weighed and randomized into different treatment groups. In total, three different dosing levels of brensocatib were tested in each species and strain; each QD dosing level was equivalent to 1.5-times the matching daily BID dose. For BID dosing, the second daily dose was administered 8-h post the morning dose. C57BL/6 mice were dosed either BID or QD for 7 consecutive days at 0/0, 0.5/0.75, 2/3, and 20/30 mg/kg/day (BID/QD). BALB/c mice were dosed for 7 consecutive days at 0/0, 0.2/0.3, 2/3, and 20/30 mg/kg/day (BID/QD). SD rats were dosed for 9 consecutive days at 0/0, 0.2/0.3, 2/3, and 20/30 mg/kg/day (BID/QD). Wistar rats were dosed for 7 consecutive days at 0/0, 0.2/0.3, 2/3, and 20/30 mg/kg/day (BID/QD).
At the completion of the study, animals were sacrificed 16–24 h post their final dose. The hind limb bones (femurs and tibias) were collected at necropsy for bone marrow analysis of NSP activities by kinetic enzymatic assays ([Basso et al., 2022]). See section Quantification of Bone Marrow NSP Activities for details.
For the mice, each animal had the femurs and tibias of both hind limbs harvested. For the rat, the femur and tibia from a single hind limb per animal was harvested. Bones were kept on wet ice until processing for bone marrow collection. In brief, bone cutters were used to cut the epiphysis (knobby ends) off the long bones to expose the bone marrow filled cavity. Each bone cavity was then flushed with 5 mL/bone (mouse) or 10 mL/bone (rat) of ice-cold RPMI media through a […] and collected in a 50-mL conical tube. Cells were spun down at 2,500 × g at 4°C for 5 min and the supernatant was aspirated. After which, bone marrow cells were lysed with 1X red blood cell (RBC) lysis buffer (Abcam, ab204733) to eliminate contaminating RBCs and washed with PBS to remove any residual RBC lysis buffer. The resulting white blood cells (WBC) were subsequently lysed with 1% (v/v) Triton X-100 in PBS. Lysates were added to 96-well plates and stored at −80°C until NSP analyses.
Bone marrow lysates prepared as described above were diluted and plated onto 96-well assay plates to quantify NSP activities as described previously ([Basso et al., 2022]). Briefly, peptide substrates for NE (N-Methoxysuccinyl-Ala-Ala-Pro-Val-7-amido-4-methylcoumarin; Sigma; St. Louis, MO; Excitation/Emission at 350/450 nm), PR3 ((7-Methoxycoumarin-4-yl)acetyl-lysyl-(picolinoyl)-Tyr-Asp-Ala-Lys-Gly-Asp-N-3-(2-4-dinitrophenyl)-2-3-diaminopropyonyl-NH2); GenScript; Piscataway, NJ; Excitation/Emission at 340/430 nm), and CatG (N-Succinyl-Ala-Ala-Pro-Phe p nitroanilide; Sigma; Absorbance at 405 nm) were added at a final assay concentration of 100 μM, 40 μM, and 200 μM, respectively, and either fluorescence or absorbance was quantified using a Synergy microplate reader (BioTek; Winooski, VT). The specific NSP activity in each sample was calculated as the total activity minus the activity in the presence of a specific NSP inhibitor (if used), including elastase inhibitor (Abcam) for NE, sivelestat (Abcam) for PR3, and cathepsin G inhibitor I (Cayman Chemical; Ann Arbor, MI) for CatG. NSP concentrations were interpolated based on their activities relative to the standard curves created using active human NE protein (Sigma), active human PR3 protein (Sigma), and active human CatG protein (Sigma), respectively. Due to unavailability of commercial mouse and/or rat NE, PR3, and CatG proteins, the corresponding human proteins were used instead since their catalytic ability is considered to be conserved across species. A portion of each cell lysate sample was retained for protein quantification using a Pierce™ BCA Protein Assay Kit (Thermo Fisher). The NSP activities were normalized for the cell lysate protein concentrations.
The Pierce™ BCA Protein Assay Kit was used to measure the total protein of the samples after lysis to allow for subsequent normalization. […]

SMILES: Cn1c(=O)oc2ccc(-c3ccc(C[C@@H](C#N)NC(=O)[C@@H]4CNCCCO4)cc3)cc21 [brensocatib]
- Time to full recovery of NSP activity (visually) (NSPs (NE, PR3, CatG)): 6–8 days post final dose
- time to first exacerbation [1]: prolonged
- Reduction of NE activity vs vehicle (NE; BID highest dose (20 mg/kg/day)): 38%
- Reduction of NE activity vs vehicle (NE; QD highest dose (30 mg/kg/day)): 36%
- Combined BID and QD percent reduction, NE (NE; highest dose level 20/30 (BID/QD) mg/kg/day): 37%
- Change From Vehicle Control (%) NE (NE; oral BID 0.2 mg/kg/day): +6% (p = 0.6846)
- Change From Vehicle Control (%) NE (NE; oral BID 2 mg/kg/day): −18% (p = 0.0243)
- Change From Vehicle Control (%) NE (NE; oral BID 20 mg/kg/day): −38% (p < 0.0001)
- Change From Vehicle Control (%) NE (NE; oral QD 0.3 mg/kg/day): −2% (p = 0.9973)
- Change From Vehicle Control (%) NE (NE; oral QD 3 mg/kg/day): −19% (p = 0.2196)
- Change From Vehicle Control (%) NE (NE; oral QD 30 mg/kg/day): −36% (p = 0.0078)
